Assay results published in patent US8546440B2, “Substituted bicyclic imidazole derivatives as gamma secretase modulators” (Janssen Pharmaceuticals, Inc., priority 2008, dated 2013).

Assays:
Aβtotal = assay: Screening for γ-secretase-modulating activity, Method 1: Aβtotal sandwich ELISA in supernatant of SKNBE2 cells carrying APP 695 wild type (Tables 12a, 12b); format: cell-based
Protocol: (§1) Screening was carried out using SKNBE2 cells carrying the APP 695—wild type, grown in Dulbecco's Modified Eagle's Medium/Nutrient mixture F-12 (DMEM/NUT-mix F-12) (HAM) provided by Gibco (cat no. 31330-38) containing 5% Serum/Fe supplemented with 1% non-essential amino acids. Cells were grown to near confluency.
(§2) The screening was performed using the assay as described in Citron et al (1997) Nature Medicine 3: 67. Briefly, cells were plated in a 96-well plate at about 10^5 cells/ml one day prior to addition of compounds. Compounds were added to the cells in Ultraculture (Lonza, BE12-725F) supplemented with 1% glutamine (Invitrogen, 25030-024) for 18 hours. The media were assayed by two sandwich ELISAs, for Aβ42 and Aβtotal. Toxicity of the compounds was assayed by WST-1 cell proliferation reagent (Roche, 1 644 807) according to the manufacturer's protocol.
To quantify the amount of Aβtotal in the cell supernatant, samples and standards were added to a 6E10-coated plate. The plate was allowed to incubate overnight at 4° C. in order to allow formation of the antibody-amyloid complex. Following this incubation and subsequent wash steps a selective anti-Aβ-antibody conjugate (biotinylated 4G8) was added and incubated for a minimum of 1 hour in order to allow formation of the antibody-Amyloid-antibody-complex. After incubation and appropriate wash steps, a Streptavidine-Peroxidase-Conjugate was added, followed 30 minutes later by an addition of Quanta Blu fluorogenic peroxidase substrate according to the manufacturer's instructions (Pierce Corp., Rockford, Ill.).
(§3) To obtain the values reported in Table 12a, the sigmoidal dose response curves were analysed by computerised curve-fitting, with percent of inhibition plotted against compound concentration. A 4-parameter equation (model 205) in XLfit was used to determine the IC50. The top and the bottom of the curve were fixed to 100 and 0, respectively, and the hill slope was fixed to 1. The IC50 represents the concentration of a compound that is required for inhibiting a biological effect by 50% (Here, it is the concentration where Aβ peptide level is reduced by 50%).
(§4) To obtain the values reported in Table 12b, the data are calculated as percentage of the maximum amount of amyloid Beta 42 measured in the absence of the test compound. The sigmoidal dose response curves were analyzed using non-linear regression analysis with percentage of the control plotted against the log concentration of the compound. A 4-parameter equation was used to determine the IC50. The values reported in Table 12b are averaged IC50 values.

Aβ42 = assay: Screening for γ-secretase-modulating activity, Method 1: Aβ42 sandwich ELISA in supernatant of SKNBE2 cells carrying APP 695 wild type (Tables 12a, 12b); format: cell-based
Protocol: as §1, §2
To quantify the amount of Aβ42 in the cell supernatant, commercially available Enzyme-Linked-Immunosorbent-Assay (ELISA) kits were used (Innotest® β-Amyloid(1-42), Innogenetics N.V., Ghent, Belgium). The Aβ42 ELISA was performed essentially according to the manufacturer's protocol. Briefly, the standards (dilutions of synthetic Aβ1-42) were prepared in polypropylene Eppendorf with final concentrations of 8000 down to 3.9 pg/ml (1/2 dilution step). Samples, standards and blanks (100 μl) were added to the anti-Aβ42-coated plate supplied with the kit (the capture antibody selectively recognizes the C-terminal end of the antigen). The plate was allowed to incubate 3 h at 25° C. in order to allow formation of the antibody-amyloid complex. Following this incubation and subsequent wash steps a selective anti-Aβ-antibody conjugate (biotinylated 3D6) was added and incubated for a minimum of 1 hour in order to allow formation of the antibody-Amyloid-antibody-complex. After incubation and appropriate wash steps, a Streptavidine-Peroxidase-Conjugate was added, followed 30 minutes later by an addition of 3,3′,5,5′-tetramethylbenzidine (TMB)/peroxide mixture, resulting in the conversion of the substrate into a coloured product. This reaction was stopped by the addition of sulfuric acid (0.9 N) and the colour intensity was measured by means of photometry with an ELISA-reader with a 450 nm filter.
as §3, §4

[1] = Homo sapiens, Method 1, Table 12a, SKNBE2 cells carrying APP 695 wild type, compounds 18 hours, ELISA, curve top and bottom fixed to 100 and 0, hill slope 1
[2] = Homo sapiens, Table 12b, Method 1, SKNBE2 cells carrying APP 695 wild type, cell supernatant ELISA, averaged IC50 values
[3] = Homo sapiens, Table 12b, Method 1, SKNBE2 cells carrying APP 695 wild type, cell supernatant ELISA, averaged IC50 values, percentage of control vs log concentration
[4] = Method 1, Table 12a, SKNBE2 cells carrying APP 695 wild type, compounds 18 hours, ELISA, curve top and bottom fixed to 100 and 0, hill slope 1
[5] = Table 12b, Method 1, SKNBE2 cells carrying APP 695 wild type, cell supernatant ELISA, averaged IC50 values
[6] = Table 12b, Method 1, SKNBE2 cells carrying APP 695 wild type, cell supernatant ELISA, averaged IC50 values, percentage of control vs log concentration

Row | Structure (SMILES) | IC50 (Aβtotal; [1]) | IC50 (Aβtotal; [2]) | IC50 (Aβ42; [1]) | IC50 (Aβ42; [3]) | IC50 (Aβtotal; [4]) | IC50 (Aβtotal; [5]) | IC50 (Aβ42; [4]) | IC50 (Aβ42; [6])
1 | COc1cc(Nc2cccn3cc(-c4ccc(F)cc4)nc23)ccc1-n1cnc(C)n1 [Compound 6] | > 10000 nM | > 10000 nM | 239 nM | 263 nM | – | – | – | –
2 | COc1cc(Nc2cccn3cc(C(C)(C)C)nc23)ccc1-n1cnc(C)c1 [Compound 9] | > 10000 nM | > 10000 nM | 384 nM | 282 nM | – | – | – | –
3 | CCCCc1nc2c(Nc3ccc(-n4cnc(C)c4)c(OC)c3)cccn2c1CCC [Compound 11] | – | – | – | – | > 3000 nM | > 3020 nM | 39 nM | 35 nM
4 | COc1cc(Nc2cccn3cc(-c4ccccc4)nc23)ccc1-n1cnc(C)c1 [Compound 12] | > 3000 nM | > 3020 nM | 64 nM | 55 nM | – | – | – | –
5 | COc1cc(Nc2cccn3c(-c4ccccc4)c(-c4ccccc4)nc23)ccc1-n1cnc(C)c1 [Compound 13] | > 3000 nM | > 3020 nM | 89 nM | 87 nM | – | – | – | –
6 | COc1cc(Nc2cccn3cc(-c4ccccc4Cl)nc23)ccc1-n1cnc(C)c1 [Compound 14] | > 3000 nM | > 3020 nM | 57 nM | 41 nM | – | – | – | –
7 | COc1cc(Nc2cccn3cc(-c4cccc(Cl)c4)nc23)ccc1-n1cnc(C)c1 [Compound 16] | > 3000 nM | > 3020 nM | 58 nM | 49 nM | – | – | – | –
8 | COc1cc(Nc2cccn3cc(-c4ccc(Cl)cc4)nc23)ccc1-n1cnc(C)c1 [Compound 17] | > 3000 nM | > 3020 nM | 80 nM | 71 nM | – | – | – | –
9 | COc1cc(Nc2cccn3cc(-c4cccc(F)c4)nc23)ccc1-n1cnc(C)c1 [Compound 19] | > 3000 nM | > 3020 nM | 59 nM | 56 nM | – | – | – | –
10 | COc1cc(Nc2cccn3cc(-c4ccc(F)cc4)nc23)ccc1-n1cc(C)nc1C [Compound 20] | – | 5750 nM | – | 871 nM | – | – | – | –
11 | COc1cc(Nc2cccn3cc(-c4ccc(F)cc4)nc23)ccc1-n1ccnc1C [Compound 21] | > 5000 nM | > 5010 nM | 263 nM | 204 nM | – | – | – | –
12 | COc1cc(Nc2cccn3c(Br)c(-c4ccc(F)cc4)nc23)ccc1-n1cnc(C)c1 [Compound 22] | > 3000 nM | > 3020 nM | 113 nM | 112 nM | – | – | – | –
13 | CCc1c(-c2ccc(F)cc2)nc2c(Nc3ccc(-n4cnc(C)c4)c(OC)c3)cccn12 [Compound 23] | – | – | – | – | > 3000 nM | > 3020 nM | 25 nM | 22 nM
14 | CCCc1c(-c2ccc(F)cc2)nc2c(Nc3ccc(-n4cnc(C)c4)c(OC)c3)cccn12 [Compound 24] | – | – | – | – | > 1000 nM | > 10000 nM | 24 nM | 20 nM
15 | COc1cc(Nc2cccn3cc(-c4ccc(F)cc4F)nc23)ccc1-n1cnc(C)c1 [Compound 25] | > 10000 nM | > 10000 nM | 251 nM | 240 nM | – | – | – | –
16 | COc1cc(Nc2cccn3cc(COc4ccc(F)cc4)nc23)ccc1-n1cnc(C)c1 [Compound 28] | > 1000 nM | > 3020 nM | 20 nM | 18 nM | – | – | – | –
17 | COc1cc(Nc2cccn3cc(-c4ccc(C(F)(F)F)cc4)nc23)ccc1-n1cnc(C)c1 [Compound 30] | > 3000 nM | > 3020 nM | 57 nM | 45 nM | – | – | – | –
18 | COc1ccc(-c2cn3cccc(Nc4ccc(-n5cnc(C)c5)c(OC)c4)c3n2)cc1 [Compound 36] | > 3000 nM | > 3020 nM | 64 nM | 60 nM | – | – | – | –
19 | COc1ccc(-c2cn3cccc(Nc4ccc(-n5cnc(C)c5)c(OC)c4)c3n2)c(OC)c1 [Compound 37] | > 10000 nM | > 10000 nM | 190 nM | 174 nM | – | – | – | –

Row | Structure (SMILES) | IC50 (Aβtotal; [1]) | IC50 (Aβtotal; [2]) | IC50 (Aβ42; [1]) | IC50 (Aβ42; [3]) | IC50 (Aβtotal; [4]) | IC50 (Aβtotal; [5]) | IC50 (Aβ42; [4]) | IC50 (Aβ42; [6])
20 | COc1cc(Nc2cccn3cc(-c4ccccn4)nc23)ccc1-n1cnc(C)c1 [Compound 41] | 8540 nM | 7410 nM | 344 nM | 363 nM | – | – | – | –
21 | COc1cc(Nc2cccn3cc(-c4cccnc4)nc23)ccc1-n1cnc(C)c1 [Compound 42] | > 10000 nM | > 10000 nM | 430 nM | 427 nM | – | – | – | –
22 | COc1cc(Nc2cccn3cc(-c4ccncc4)nc23)ccc1-n1cnc(C)c1 [Compound 43] | – | > 3020 nM | – | > 3020 nM | – | – | – | –
23 | COc1cc(Nc2cccn3cc(-c4ccc5ncn(C)c5c4)nc23)ccc1-n1cnc(C)c1 [Compound 44] | – | > 3020 nM | – | 617 nM | – | – | – | –
24 | COc1cc(Nc2cccn3cc(-c4ccc(F)cc4)nc23)ccc1-n1ncnc1C [Compound 45] | > 5000 nM | > 5010 nM | 232 nM | 200 nM | – | – | – | –
25 | COc1cccc(-c2nc3c(Nc4cnc(-n5cnc(C)c5)nc4)cccn3c2C)c1 [Compound 46] | – | – | – | – | > 3000 nM | > 3020 nM | 52 nM | 50 nM
26 | COc1cc(Nc2cccn3cc(-c4ccccc4C(F)(F)F)nc23)ccc1-n1cnc(C)c1 [Compound 47] | > 3000 nM | > 3020 nM | 31 nM | 31 nM | – | – | – | –
27 | COc1cc(Nc2cccn3cc(-c4cccc(C(F)(F)F)c4)nc23)ccc1-n1cnc(C)c1 [Compound 48] | > 3000 nM | > 3020 nM | 60 nM | 52 nM | – | – | – | –
28 | COc1cc(Nc2cccn3ccnc23)ccc1-n1cnc(C)c1 [Compound 49] | 10000 nM | > 10000 nM | 305 nM | 407 nM | – | – | – | –
29 | CCCCc1cn2cccc(Nc3ccc(-n4cnc(C)c4)c(OC)c3)c2n1 [Compound 51] | – | – | – | – | > 3000 nM | > 3020 nM | 39 nM | 38 nM
30 | COc1cc(Nc2cccn3c(Cl)c(CC4CCCCC4)nc23)ccc1-n1cnc(C)c1 [Compound 53] | – | > 3020 nM | – | 27 nM | – | – | – | –
31 | COc1cc(Nc2cccn3cc(COC(C)C)nc23)ccc1-n1cnc(C)c1 [Compound 54] | > 3000 nM | > 3020 nM | 70 nM | 68 nM | – | – | – | –
32 | COc1cc(Nc2cccn3cc(CN4CCCCC4)nc23)ccc1-n1cnc(C)c1 [Compound 55] | – | – | – | – | – | > 3020 nM | – | 1290 nM
33 | COc1cc(Nc2cccn3cc(CN4CCOCC4)nc23)ccc1-n1cnc(C)c1 [Compound 56] | > 10000 nM | > 10000 nM | 601 nM | 204 nM | – | – | – | –
34 | COc1cc(Nc2cccn3c(I)c(-c4ccc(F)cc4)nc23)ccc1-n1cnc(C)c1 [Compound 57] | > 1000 nM | > 3020 nM | 58 nM | 51 nM | – | – | – | –
35 | COc1cc(Nc2cccn3c(C#N)c(-c4ccc(F)cc4)nc23)ccc1-n1cnc(C)c1 [Compound 58] | – | > 3020 nM | – | < 110 nM | – | – | – | –
36 | CCCCCCc1cnc2c(Nc3ccc(-n4cnc(C)c4)c(OC)c3)cccn12 [Compound 59] | – | – | – | – | > 3000 nM | > 3020 nM | 123 nM | 145 nM
37 | COc1cc(Nc2cccn3c(-c4ccccc4-c4ccccc4)cnc23)ccc1-n1cnc(C)c1 [Compound 60] | – | > 3020 nM | – | < 110 nM | – | – | – | –
38 | COc1cccc(-c2nc3c(Nc4ccc(-n5cnc(C)c5)c(F)c4)cccn3c2C)c1 [Compound 66] | – | – | – | 76 nM | – | – | – | –
